Consider 17 compounds from ChEMBL document CHEMBL1145073, “DNA binding ligands targeting drug-resistant bacteria: structure, activity, and pharmacology” (J Med Chem, 2003).

In brackets after ≈: the same amount, converted by molar mass.

In experiment [1] the target is Nucleic Acid. The experiment in a line: Apparent binding affinity against DNA (5'-ACAATTAA-3') was determined using DNase I footprinting titration method. It counts as nucleic-acid assay. The conditions noted are these: read-out: Kd app.
The test system of experiment [2] is Staphylococcus aureus. The experiment in a line: In vitro antimicrobial activity against methicillin resistant Staphylococcus aureus 27660. It counts as functional.
Experiment [3] in a line: In vitro antimicrobial activity against penicillin-intermediate Streptococcus pneumoniae 49619. It counts as functional.
Experiment [4] relates to Enterococcus faecalis. The experiment in a line: In vitro antimicrobial activity against vancomycin-susceptible Enterococcus faecalis 29212. The format is functional.
Experiment [5] concerns Bacillus cereus. The experiment in a line: In vitro antimicrobial activity against Bacillus cereus 11778. The format is functional.
Experiment [6] has as its system Mus musculus. Description: Acute tolerability of compound in 4 ICR female mice after intravenous administration was determined; No adverse effects. It counts as functional, organism-based.
The nature of experiment [7]: In vitro antimicrobial activity against penicillin resistant Streptococcus pneumoniae 51422. The format is functional.
Experiment [8] deals with Enterococcus faecalis. The experiment in a line: In vitro antimicrobial activity against vancomycin-resistant Enterococcus faecalis 51559. It counts as functional.
Experiment [9] has as its system Candida albicans. Description: In vitro antimicrobial activity against Candida albicans 38247. The conditions noted are these: Candida albicans; read-out: MIC. It counts as functional.
Experiment [10] has as its system Mus musculus. Description: Acute tolerability of compound […] female mice after intravenous administration was determined; 5/5 lethargy. The format is functional, organism-based.
In experiment [11] the test system is Enterococcus faecalis. Description: In vitro antimicrobial activity against vancomycin-resistant Enterococcus faecalis 51559.
The test system of experiment [12] is Mus musculus. The experiment in a line: Acute tolerability of compound […] female mice after intravenous administration was determined; Lethality 5/5. It counts as functional, organism-based.
Experiment [13] has as its system Staphylococcus aureus. The experiment in a line: In vitro antimicrobial activity against MSSA 13709. It counts as functional.

With `Cn1cc(NC(=O)c2cc(NC(=O)c3cc(NC(=O)c4sccc4Cl)cn3C)cn2C)cc1C(=O)NCCN1CCC(F)(F)CC1`, the Kd in experiment [1] is 50 nM. The values for the MIC in [2], in [3] and in experiment [4] were 2 µg/mL (≈ 2.96 µM), 0.5 µg/mL (≈ 0.741 µM) and 2 µg/mL (≈ 2.96 µM), respectively.
As for `Cn1cc(NC(=O)c2cc(NC(=O)c3cc(NC(=O)c4sccc4Cl)cn3C)cn2C)cc1C(=O)NCCN1CCSCC1`, the minimum inhibitory concentration (MIC) (commonly the least concentration at which growth counts as inhibited) is 0.5 µg/mL (≈ 0.761 µM) in [5]; 1 µg/mL (≈ 1.52 µM) in experiment [2]; 0.125 µg/mL (≈ 0.19 µM) in experiment [3]; 0.062 µg/mL (≈ 0.0943 µM) in [7]; 0.5 µg/mL (≈ 0.761 µM) in [4]; 2 µg/mL (≈ 3.04 µM) in experiment [8]. Further, the MIC in experiment [9] is greater than 32 µg/mL. For the same compound, in experiment [1], the Kd was less than 1 nM. Also, the Acute tolerability result in experiment [6] was “No adverse effects”.
For the compound `Cn1cc(NC(=O)c2cc(NC(=O)c3cc(NC(=O)c4sccc4Cl)cn3C)cn2C)cc1C(=O)NCCN1CCCCC1`, the MIC turned out to be 0.5 µg/mL (≈ 0.782 µM) in experiment [5]; 0.5 µg/mL (≈ 0.782 µM) in experiment [2]; 0.25 µg/mL (≈ 0.391 µM) in experiment [3]; 2 µg/mL (≈ 3.13 µM) in experiment [7]; 0.5 µg/mL (≈ 0.782 µM) in experiment [4]; 32 µg/mL (≈ 50.1 µM) in experiment [9]. Besides, in experiment [11], the MIC came to 2 µg/mL (≈ 3.13 µM). Also, the Kd in [1] was found to be 5 nM. In [10], the Acute tolerability is given as 5/5 lethargy.
Turning to `Cn1cc(NC(=O)c2cc(NC(=O)c3cc(NC(=O)c4sccc4Cl)cn3C)cn2C)cc1C(=O)NCCCN1CCOCC1`, the MIC in [5] was found to be 8 µg/mL (≈ 12.2 µM); in [2] it was 8 µg/mL (≈ 12.2 µM); in [3], 2 µg/mL (≈ 3.05 µM); in experiment [7], 8 µg/mL (≈ 12.2 µM); in experiment [4] it was 4 µg/mL (≈ 6.11 µM); in [8], 8 µg/mL (≈ 12.2 µM). Further, the MIC in [9] is greater than 32 µg/mL. Moreover, in experiment [1], the Kd worked out at 71 nM.
`Cn1cc(NC(=O)c2cc(NC(=O)c3cc(NC(=O)c4sc5cc(F)ccc5c4Cl)cn3C)cn2C)cc1C(=O)NCCN1CCOCC1`: the MIC is 0.25 µg/mL (≈ 0.353 µM) in experiment [5], 0.125 µg/mL (≈ 0.176 µM) in [3], 0.25 µg/mL (≈ 0.353 µM) in experiment [4] and greater than 32 µg/mL in [9]. Moreover, the Acute tolerability entry in experiment [6] is “No adverse effects”.
In the case of `Cn1cc(NC(=O)c2cc(NC(=O)c3cc(NC(=O)c4sccc4Cl)cn3C)cn2C)cc1C(=O)NCCN1CCCC1`, the Kd in experiment [1] was 2 nM. Besides, the minimum inhibitory concentration (MIC) was 8 µg/mL (≈ 12.8 µM) in [2], 2 µg/mL (≈ 3.2 µM) in experiment [3] and 16 µg/mL (≈ 25.6 µM) in experiment [4].
With `Cn1cc(NC(=O)c2cc(NC(=O)c3cc(-c4ccc(Cl)cc4F)cn3C)cn2C)cc1C(=O)NCCN1CCOCC1`, the MIC in [5] was 0.5 µg/mL (≈ 0.82 µM); in experiment [2] it was 2 µg/mL (≈ 3.28 µM); in [3], 0.25 µg/mL (≈ 0.41 µM); in experiment [7], 0.062 µg/mL (≈ 0.102 µM); in experiment [4], 0.5 µg/mL (≈ 0.82 µM); in experiment [8], 0.5 µg/mL (≈ 0.82 µM). Besides, the minimal inhibitory concentration (MIC) in [9] is greater than 32 µg/mL. Moreover, the Kd in experiment [1] came to 0.1 nM. For the same compound, the Acute tolerability entry in experiment [12] was “Lethality 5/5”.
As to `Cn1cc(NC(=O)c2cc(NC(=O)c3cc(NC(=O)c4cc5ccccc5cn4)cn3C)cn2C)cc1C(=O)NCCN1CCSCC1`, the minimal inhibitory concentration (MIC) in experiment [5] stood at 0.25 µg/mL (≈ 0.374 µM); in [2], 0.125 µg/mL (≈ 0.187 µM); in experiment [3], 0.031 µg/mL (≈ 0.0464 µM); in experiment [7] it was 0.062 µg/mL (≈ 0.0928 µM); in experiment [4] it was 0.25 µg/mL (≈ 0.374 µM); in [8], 0.125 µg/mL (≈ 0.187 µM). Besides, the MIC in experiment [9] was greater than 32 µg/mL. Also, the Kd in experiment [1] turned out to be 1 nM. The Acute tolerability result in experiment [6] is “No adverse effects”.
For `Cn1cc(NC(=O)c2cc(NC(=O)c3cc(-c4cc5ccccc5[nH]4)cn3C)cn2C)cc1C(=O)NCCN1CCOCC1`, the MIC in experiment [2] is 8 µg/mL (≈ 13.4 µM); in experiment [3] it was 2 µg/mL (≈ 3.35 µM); in experiment [4] it was 8 µg/mL (≈ 13.4 µM).
In the case of `CCCCc1ccc(-c2cc(C(=O)Nc3cc(C(=O)Nc4cc(C(=O)NCCN5CCOCC5)n(C)c4)n(C)c3)n(C)c2)nc1`, the MIC is 8 µg/mL (≈ 13 µM) in experiment [2], 2 µg/mL (≈ 3.25 µM) in [3] and 32 µg/mL (≈ 52.1 µM) in experiment [4].
For the compound `Cn1cc(NC(=O)c2cc(NC(=O)c3cc(-c4nccs4)cn3C)cn2C)cc1C(=O)NCCN1CCOCC1`, the MIC in experiment [13], in experiment [3] and in experiment [4] was greater than 32 µg/mL in each case.
On to `CN(C)CCCNC(=O)c1cc(NC(=O)c2cc(NC(=O)c3cc(NC(=O)c4sccc4Cl)cn3C)cn2C)cn1C`, for which the Kd in experiment [1] worked out at 5 nM. The results for the MIC in [2], in experiment [3] and in experiment [4] were 8 µg/mL (≈ 13 µM), 4 µg/mL (≈ 6.52 µM) and 16 µg/mL (≈ 26.1 µM), respectively.
With `Cn1cc(NC(=O)c2cc(NC(=O)c3cc(NC(=O)c4cc5ccccc5cn4)cn3C)cn2C)cc1C(=O)NCCN1CCCC1`, the MIC came out at 0.5 µg/mL (≈ 0.786 µM) in experiment [2], 0.062 µg/mL (≈ 0.0975 µM) in [3] and 2 µg/mL (≈ 3.15 µM) in experiment [4].
Turning to `Cn1cc(NC(=O)c2cc(NC(=O)c3cc(-c4ccc(Cl)s4)cn3C)cn2C)cc1C(=O)NCCN1CCOCC1`, the MIC in [2] stood at 4 µg/mL (≈ 6.69 µM); in [3] it was 2 µg/mL (≈ 3.34 µM); in experiment [4] it was 2 µg/mL (≈ 3.34 µM).
Regarding `Cn1cc(NC(=O)c2cc(NC(=O)c3cc(NC(=O)c4cc5ccccc5cn4)cn3C)cn2C)cc1C(=O)NCCCN1CCOCC1`, the MIC in [2], in [3] and in experiment [4] was 2 µg/mL (≈ 3 µM) each time.
In the case of `Cn1cc(NC(=O)c2cc(NC(=O)c3cc(-c4cccc(F)c4)cn3C)cn2C)cc1C(=O)NCCN1CCOCC1`, the MIC in [2] was 32 µg/mL (≈ 55.6 µM); in experiment [3] it was 16 µg/mL (≈ 27.8 µM); in experiment [4] it was 32 µg/mL (≈ 55.6 µM).
Turning to `Cn1cc(NC(=O)c2cc(NC(=O)c3cc(NC(=O)c4sccc4Cl)cn3C)cn2C)cc1C(=O)NCc1ccccn1`, the MIC in experiment [2] was greater than 32 µg/mL; in [3], 1 µg/mL (≈ 1.62 µM); in experiment [4] it was 4 µg/mL (≈ 6.46 µM).
